Results from publication PMC9268102, “Design, Synthesis and Biological Evaluation of 1,3,5-Triazine Derivatives Targeting hA1 and hA3 Adenosine Receptor” (Molecules, 2022).
Where “and” joins values, the source holds several entries; their conditions need not be identical. Equal values may be shown once. Read-outs that look alike come from different tables or passages of the source.

Columns and labels:
hA1 AR [1] = target: T1, hA1 AR (Homo sapiens, UniProt P30542); details: read-out: Ki at hA1AR; cited from earlier work
T1 construct: host or cells: CHO-A1 (CHO cells expressing hA1 AR)
T1 sequence (P30542 1-326): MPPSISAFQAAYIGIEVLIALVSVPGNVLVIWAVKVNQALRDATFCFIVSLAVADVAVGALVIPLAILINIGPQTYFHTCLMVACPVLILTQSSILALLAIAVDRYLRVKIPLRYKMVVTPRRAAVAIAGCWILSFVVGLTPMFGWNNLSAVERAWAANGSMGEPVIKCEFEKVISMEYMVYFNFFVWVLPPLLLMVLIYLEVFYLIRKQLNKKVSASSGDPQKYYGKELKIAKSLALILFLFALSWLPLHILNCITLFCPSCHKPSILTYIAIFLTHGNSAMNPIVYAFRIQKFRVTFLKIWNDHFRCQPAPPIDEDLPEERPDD

hA2A AR [2] = target: T2, hA2A AR (Homo sapiens, UniProt P29274); details: cited from earlier work
T2 construct: expressed in transfected cells; host or cells: Hela-A2A cell line
T2 sequence (P29274 whole entry): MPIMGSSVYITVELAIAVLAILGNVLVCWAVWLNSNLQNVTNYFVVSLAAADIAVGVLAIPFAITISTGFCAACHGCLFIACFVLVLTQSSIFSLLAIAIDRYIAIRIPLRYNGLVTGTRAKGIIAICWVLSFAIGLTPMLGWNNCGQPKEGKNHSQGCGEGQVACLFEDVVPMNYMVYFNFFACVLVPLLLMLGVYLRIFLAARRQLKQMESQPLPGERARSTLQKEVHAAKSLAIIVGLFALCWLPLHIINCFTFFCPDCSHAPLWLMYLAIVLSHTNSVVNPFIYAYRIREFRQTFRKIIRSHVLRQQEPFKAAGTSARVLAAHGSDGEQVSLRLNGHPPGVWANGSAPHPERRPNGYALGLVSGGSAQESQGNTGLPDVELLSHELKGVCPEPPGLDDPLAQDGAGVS

hA2B AR = target: T3, hA2B AR (Homo sapiens, UniProt P29275); experiment: Radioligand competition binding assay at hA2B AR; details: 10 μM compound; [3H]DPCPX; HEK-293 cells; read-out: Percentage Inhibition (%) at 10 μM, hA2B AR
T3 construct: host or cells: HEK-A2B (HEK-293T-A2B) cell line
T3 sequence (P29275 1-332): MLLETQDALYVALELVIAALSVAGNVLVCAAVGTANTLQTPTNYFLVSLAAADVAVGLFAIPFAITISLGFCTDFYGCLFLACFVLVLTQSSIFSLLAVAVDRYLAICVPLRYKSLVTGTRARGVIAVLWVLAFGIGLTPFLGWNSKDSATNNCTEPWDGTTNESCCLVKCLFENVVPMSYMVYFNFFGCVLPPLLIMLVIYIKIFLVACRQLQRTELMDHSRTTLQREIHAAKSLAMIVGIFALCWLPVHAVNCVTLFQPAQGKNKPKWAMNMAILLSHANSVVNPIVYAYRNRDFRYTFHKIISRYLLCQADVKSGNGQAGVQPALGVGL
Protocol: (§1) All the synthesized compounds were screened with radioligand binding assays at hARs. First, the percentage of inhibition was measured by treatment of each hAR subtype with 10 μM of each compound (Table 1).
hA2B AR competition binding experiments were carried out in a multiscreen GF/C 96-well plate. In each well was incubated 25 µg of membranes from Euroscreen HEK-A2B cell line and prepared in laboratory, 25 nM [^3H]-DPCPX (140 Ci/mmol, 1 mCi/mL, Perkin Elmer NET974001MC) and compounds studied according to standard protocol. Non-specific binding was determined in the presence of NECA 1000 µM (Sigma E2397). The reaction mixture (Vt: 250 µL/well) was incubated at 25°C for 30 min, 200 µL was transferred to GF/C 96-well plate (Millipore, Madrid, Spain), and pretreated with binding buffer (Tris-HCl 50 Mm, EDTA 1 mM, MgCl2 5 mM, Bacitracin […], adenosine deaminase 2 U/Ml, pH = 6.5). It was then filtered and washed four times with 250 μL wash buffer (Tris-HCl 50 mM, EDTA 1 mM, MgCl2 5 mM, pH = 6.5), before being measured in a microplate beta scintillation counter (MicrobetaTrilux, PerkinElmer, Madrid, Spain).

hA2A AR [3] = target: T2, hA2A AR; experiment: Radioligand competition binding assay at hA2A AR; details: 10 μM compound, [3H]ZM241385, Hela cells; for inhibition at 10 µM: read-out: Percentage Inhibition (%) at 10 μM, hA2A AR
Protocol: as §1
(§2) hA1, hA2A, and hA3 AR competition binding experiments were carried out in a multiscreen GF/C 96-well plate (Millipore, Madrid, Spain) pretreated with binding buffer (Hepes 20 mM, NaCl 100 mM, MgCl2 10 mM, 2 U/mL adenosine deaminase, pH = 7.4 for hA1 AR; Tris-HCl 50 mM, EDTA 1 mM, MgCl2 10 mM, 2 U/mL adenosine deaminase, pH = 7.4 for hA2A AR; and Tris-HCl 50 mM, EDTA 1 mM, MgCl2 5 mM, 2 U/mL adenosine deaminase, pH = 7.4 for hA3 AR, respectively). In each well was incubated 5 µg of membranes from Euroscreen CHO-A1 cell line, 5µg of membranes from Hela-A2A cell line, or 30µg of membranes from Hela-A3 cell line and prepared in laboratory: 1 nM [^3H]-DPCPX (140 Ci/mmol, 1 mCi/Ml, Perkin Elmer NET974001MC) for hA1 AR; 1 nM [^3H]-ZM241385 (50 Ci/mmol, 1 mCi/mL, ARC-ITISA 0884) for hA2A AR; and 10 nM [^3H]-NECA (29.6 Ci/mmol, 1 mCi/mL, Perkin Elmer NET811250UC) for hA3 AR, respectively; and the compounds studied according to standard protocol. Non-specific binding was determined in the presence of R-PIA 10 µM (Sigma P4532) for hA1 AR; of NECA 50 µM (Sigma E2387) for hA2A AR; and of R-PIA 100 µM (Sigma P4532) for hA3 AR, respectively. The reaction mixture (Vt: 200 µL/well) was incubated at 25 °C for 60 min (hA1 AR), 30min (hA2A AR), or 180min (hA3 AR); whereafter it was filtered and washed four times (hA1 and hA2A AR) or six times (hA3 AR) with 250 μL wash buffer (Hepes 20 mM, NaCl 100 mM, MgCl2 10 mM pH = 7.4, for hA1 AR; Tris-HCl 50 mM, EDTA 1 mM, MgCl2 10 mM, pH = 7.4, for hA2A AR; and Tris-HCl 50mM pH = 7.4, for hA3 AR, respectively) before being measured in a microplate beta scintillation counter (MicrobetaTrilux, PerkinElmer, Madrid, Spain).

hA3 AR = target: T4, hA3 AR (Homo sapiens, UniProt P0DMS8); experiment: Radioligand competition binding assay at hA3 AR; design: expressed in transfected cells; host or cells: Hela-A3 cell line; details: [3H]NECA; for Percentage Inhibition (%) at 10 μM, hA3 AR / inhibition at 10 µM: 10 μM compound; for inhibition at 10 µM: read-out: Percentage Inhibition (%) at 10 μM, hA3 AR
T4 sequence (P0DMS8 1-318): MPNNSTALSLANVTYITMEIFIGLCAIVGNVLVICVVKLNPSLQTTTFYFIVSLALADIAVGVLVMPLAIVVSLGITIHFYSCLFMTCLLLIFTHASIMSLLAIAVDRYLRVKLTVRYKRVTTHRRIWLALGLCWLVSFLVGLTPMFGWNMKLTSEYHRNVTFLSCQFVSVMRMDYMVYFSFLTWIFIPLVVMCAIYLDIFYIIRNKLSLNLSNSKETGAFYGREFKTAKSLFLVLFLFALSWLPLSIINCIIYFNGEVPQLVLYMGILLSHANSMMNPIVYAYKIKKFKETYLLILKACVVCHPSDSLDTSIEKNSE
Protocol: as §1, §2

hA1 AR [4] = target: T1, hA1 AR; experiment: Radioligand competition binding assay at hA1 AR; details: for inhibition at 10 µM / Percentage Inhibition (%) at 10 μM, hA1 AR: 10 μM compound; for inhibition at 10 µM / Ki / Percentage Inhibition (%) at 10 μM, hA1 AR: [3H]DPCPX, CHO cells; for inhibition at 10 µM: read-out: Percentage Inhibition (%) at 10 μM, hA1 AR
Protocol: as §1, §2

| Structure (SMILES) | inhibition at 10 µM (hA2B AR) [%] | inhibition at 10 µM (hA2A AR [3]) [%] | inhibition at 10 µM (hA3 AR) [%] | inhibition at 10 µM (hA1 AR [4]) [%] | other results |
| --- | --- | --- | --- | --- | --- |
| Cc1ccsc1/C=C/c1nc(N)nc(-c2ccccc2O)n1 [Compound 3] | – | – | – | – | Ki (hA1 AR [1]): 32.9 nM; Selectivity hA1/hA2AAR (hA2A AR [2]): 9.5 |
| COc1cc(Cl)ccc1Nc1nc(N)nc(-c2oc3ccccc3c2C)n1 [Compound 4] | – | – | – | – | Ki (hA1 AR [1]): 1440 nM; Selectivity hA1/hA2AAR (hA2A AR [2]): 2.94; Ki (hA2A AR [2]; read-out: Ki at hA2AAR): 490 nM |
| COc1ccc(Nc2nc(N)nc(-c3ccc(O)cc3)n2)cc1F [Compound 9a, 4-{4-amino-6-[(3-fluoro-4-methoxyphenyl)amino]-1,3,5-triazin-2-yl}phenol] | 72 ± 2 | 58 ± 1 | > 95 | 99 ± 1 | Percentage Inhibition (%) at 10 μM, hA2A AR (hA2A AR [3]; 10 µM): 56 ± 3%; Percentage Inhibition (%) at 10 μM, hA3 AR (hA3 AR): 97 ± 1%; Ki (hA3 AR): 55.5 nM; Ki (hA1 AR [4]): 139 nM; Selectivity (hA1 AR:hA3 AR) (hA1 AR [4]; ratio of Ki hA1 AR to Ki hA3 AR): 2.5 and 2.51 |
| COc1cc(Nc2nc(N)nc(-c3ccc(O)cc3)n2)cc(OC)c1 [Compound 9b, 4-{4-amino-6-[(3,5-dimethoxyphenyl)amino]-1,3,5-triazin-2-yl}phenol] | 62 ± 2 | 84 ± 4 | 93 ± 1 | 99 ± 1 | Ki (hA1 AR [4]): 69.7 nM |
| Nc1nc(Nc2cccc(C(F)(F)F)c2)nc(-c2ccc(O)cc2)n1 [Compound 9d, 4-(4-amino-6-{[3-(trifluoromethyl)phenyl]amino}-1,3,5-triazin-2-yl)phenol] | 74 ± 1 | 40 ± 5 | > 95 | 69 ± 2 | Percentage Inhibition (%) at 10 μM, hA3 AR (hA3 AR): 95 ± 1%; Ki (hA3 AR): 1260 nM |
| Cc1cc(C)cc(Nc2nc(N)nc(-c3ccc(O)cc3)n2)c1 [Compound 9e, 4-{4-amino-6-[(3,5-dimethylphenyl)amino]-1,3,5-triazin-2-yl}phenol] | 42 ± 2 | 58 ± 3 | 92 ± 1 | > 95 | Percentage Inhibition (%) at 10 μM, hA1 AR (hA1 AR [4]; 10 µM): 96 ± 3%; Ki (hA1 AR [4]): 872 nM |
| Nc1nc(Nc2ccc(N3CCCCC3)cc2)nc(-c2ccc(O)cc2)n1 [Compound 9f, 4-(4-amino-6-{[4-(piperidin-1-yl)phenyl]amino}-1,3,5-triazin-2-yl)phenol] | 44 ± 4 | 28 ± 3 | 38 ± 1 | 28 ± 1 | – |
| Cc1ccc(Nc2nc(N)nc(-c3ccc(O)cc3)n2)c(C)c1 [Compound 9g, 4-{4-amino-6-[(2,4-dimethylphenyl)amino]-1,3,5-triazin-2-yl}phenol] | 47 ± 2 | 80 ± 4 | 91 ± 1 | > 95 | Percentage Inhibition (%) at 10 μM, hA1 AR (hA1 AR [4]; 10 µM): 99 ± 1%; Ki (hA1 AR [4]): 116 nM |

Now from value to compound, other results behind:

| inhibition at 10 µM (hA2B AR) [%] | inhibition at 10 µM (hA2A AR [3]) [%] | inhibition at 10 µM (hA3 AR) [%] | inhibition at 10 µM (hA1 AR [4]) [%] | Structure (SMILES) | other results |
| --- | --- | --- | --- | --- | --- |
| 27 ± 6 | 81 ± 1 | 60 ± 1 | 48 ± 4 | COc1ccc(Nc2nc(N)nc(-c3ccc(OC(F)(F)F)cc3)n2)cc1F [Compound 11c, N^2-(3-fluoro-4-methoxyphenyl)-6-[4-(trifluoromethoxy)phenyl]-1,3,5-triazine-2,4-diamine] | – |
| 93 ± 3 | 30 ± 1 | 79 ± 1 | 74 ± 1 | COc1ccc(Nc2nc(N)nc(-c3ccc(C(F)(F)F)cc3)n2)cc1F [Compound 11d, N^2-(3-fluoro-4-methoxyphenyl)-6-[4-(trifluoromethyl)phenyl]-1,3,5-triazine-2,4-diamine] | – |
| 52 ± 1 | 50 ± 2 | 72 ± 3 | 45 ± 5 | COc1ccc(Nc2nc(N)nc(-c3ccc(C#N)cc3)n2)cc1F [Compound 11e, 4-{4-amino-6-[(3-fluoro-4-methoxyphenyl)amino]-1,3,5-triazin-2-yl}benzonitrile] | – |
| 55 ± 2 | 35 ± 6 | 85 ± 1 | 52 ± 1 | COC(=O)c1ccc(-c2nc(N)nc(Nc3ccc(OC)c(F)c3)n2)cc1 [Compound 11f, methyl-4-{4-amino-6-[(3-fluoro-4-methoxyphenyl)amino]-1,3,5-triazin-2-yl}benzoate] | – |
| 35 ± 2 | 48 ± 6 | 78 ± 3 | 56 ± 1 | CCOC(=O)c1ccc(-c2nc(N)nc(Nc3ccc(OC)c(F)c3)n2)cc1 [Compound 11g, ethyl-4-{4-amino-6-[(3-fluoro-4-methoxyphenyl)amino]-1,3,5-triazin-2-yl}benzoate] | – |
| 66 ± 6 | 26 ± 5 | 79 ± 1 | 88 ± 1 | COc1ccc(Nc2nc(N)nc(-c3cc(F)c(O)c(F)c3)n2)cc1F [Compound 11h, 4-{4-amino-6-[(3-fluoro-4-methoxyphenyl)amino]-1,3,5-triazin-2-yl}-2,6-difluorophenol] | Percentage Inhibition (%) at 10 μM, hA1 AR (hA1 AR [4]): inactive |
| 72 ± 6 | 57 ± 2 | 83 ± 1 | 53 ± 1 | COc1ccc(Nc2nc(N)nc(-c3ccc(F)c([N+](=O)[O-])c3)n2)cc1F [Compound 11i, 6-(4-fluoro-3-nitrophenyl)-N^2-(3-fluoro-4-methoxyphenyl)-1,3,5-triazine-2,4-diamine] | Percentage Inhibition (%) at 10 μM, hA1 AR (hA1 AR [4]): inactive |
